Source: paper PMC10253357, “Acceptors and Effectors Alter Substrate Inhibition Kinetics of a Plant Glucosyltransferase NbUGT72AY1 and Its Mutants” (International Journal of Molecular Sciences, 2023)

How the values were obtained:
NbUGT72AY1 [1] = biological target: T1, NbUGT72AY1 (Nicotiana benthamiana, UniProt A0A8K1ZRH3); experiment: UDP-Glo glucosyltransferase assay, UDP release; format: biochemical; conditions: UDP-glucose donor, Tris pH 7.5, 40 °C
T1 construct: pGEX-4T-1 vector (GST fusion expected), expressed in E. coli BL21(DE3) pLysS
T1 sequence (A0A8K1ZRH3 1-477): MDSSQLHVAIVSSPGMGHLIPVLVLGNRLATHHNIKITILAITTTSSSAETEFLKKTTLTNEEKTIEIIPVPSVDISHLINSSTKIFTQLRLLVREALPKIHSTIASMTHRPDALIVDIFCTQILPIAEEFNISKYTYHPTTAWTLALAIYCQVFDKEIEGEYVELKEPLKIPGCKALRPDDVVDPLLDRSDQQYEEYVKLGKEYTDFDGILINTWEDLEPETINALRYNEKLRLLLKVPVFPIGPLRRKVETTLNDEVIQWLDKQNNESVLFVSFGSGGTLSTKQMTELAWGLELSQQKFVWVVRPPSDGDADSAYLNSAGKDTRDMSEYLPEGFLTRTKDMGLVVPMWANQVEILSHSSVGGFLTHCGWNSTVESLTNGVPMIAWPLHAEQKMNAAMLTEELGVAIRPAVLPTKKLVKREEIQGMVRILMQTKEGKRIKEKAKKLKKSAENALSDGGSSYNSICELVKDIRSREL

NbUGT72AY1 [2] = biological target: T1, NbUGT72AY1; experiment: UDP-Glo assay with vanillin, effector added; format: biochemical; conditions: vanillin acceptor, UDP-glucose donor, Tris pH 7.5, 40 °C
chimera A = biological target: T2, chimera A; experiment: UDP-Glo glucosyltransferase assay, UDP release; format: biochemical, Nicotiana benthamiana; conditions: substrate inhibition constant, uncompetitive model with Hill coefficients; UDP-glucose donor; Tris pH 7.5, 40 °C
T2 construct: gene UGT72AY1; NbUGT72AY1 (MT945401) with a segment of StUGT72AY2 from Solanum tuberosum; pGEX-4T-1, E. coli

NbUGT72AY1 [3] = biological target: T1, NbUGT72AY1; experiment: UDP-Glo glucosyltransferase assay, UDP release; format: biochemical; conditions: UDP-glucose donor; Tris pH 7.5, 40 °C; fit with substrate inhibition and Hill coefficients
[4] = substrate: Oc1ccc(O)cc1; experiment: UDP-Glo glucosyltransferase assay, UDP release; format: biochemical, Nicotiana benthamiana; conditions: UDP-glucose donor, Tris pH 7.5, 40 °C, Michaelis-Menten, no substrate inhibition
[5] = substrate: COc1ccccc1O; experiment: UDP-Glo glucosyltransferase assay, UDP release; format: biochemical, Nicotiana benthamiana; conditions: UDP-glucose donor, Tris pH 7.5, 40 °C, fit with substrate inhibition and Hill coefficients
[6] = substrate: O=c1c(O)c(-c2ccc(O)cc2)oc2cc(O)cc(O)c12; experiment: UDP-Glo glucosyltransferase assay, UDP release; format: biochemical, Nicotiana benthamiana; conditions: UDP-glucose donor, Tris pH 7.5, 40 °C, two products (3-O- and 7-O-glucoside)
[7] = substrate inhibition constant, complete (Vi = 0), uncompetitive model with Hill coefficients
[8] = substrate inhibition constant, uncompetitive model with Hill coefficients

## COc1ccccc1O [guaiacol]
NbUGT72AY1 [1]; [7]
  Ki: 1022 ± 69 µM

## COc1cc2ccc(=O)oc2cc1O [scopoletin]
NbUGT72AY1 [1]; substrate inhibition constant (partial uncompetitive model with Hill coefficients)
  Ki: 16 ± 1 µM

## CC1=CCCC(C)(C)C1/C=C/C(C)O (stereo not drawn) [α-ionol]
NbUGT72AY1 [2]; effector at 100 and 200 µM
  UDP-Glo assay with vanillin, effector added: addition of α- and β-ionol to the reaction resulted in a concentration-dependent increase in Ki

## C=CCc1ccc(O)c(OC)c1 [eugenol]
NbUGT72AY1 [1]; [8]
  Ki: 62 ± 17 µM

## COc1cc(/C=C/C=O)cc(OC)c1O [sinapaldehyde]
Chimera A
  Ki: 1437 ± 138 µM
NbUGT72AY1 [1]; [7]
  Ki: 1398 ± 283 µM

## COc1cc(C=O)ccc1O [vanillin]
NbUGT72AY1 [1]; substrate inhibition constant, partial uncompetitive model with Hill coefficients (n = 1, x = 2), no effector
  Ki: 117 ± 24 µM

## CCc1ccc(O)c(OC)c1 [ethylguaiacol]
NbUGT72AY1 [1]; [8]
  Ki: 345 ± 58 µM

## CC1=C(/C=C/C(C)O)C(C)(C)CCC1 (stereo not drawn) [β-ionol]
NbUGT72AY1 [2]; effector at 100 and 200 µM
  UDP-Glo assay with vanillin, effector added: addition of α- and β-ionol to the reaction resulted in a concentration-dependent increase in Ki

## CCCCCCCCCCCCCCCCCC(=O)O [stearic acid]
NbUGT72AY1 [2]; effector at 20 and 100 µM
  UDP-Glo assay with vanillin, effector added: Saturated stearic acid promoted the glycosylation activity of NbUGT72AY1 with vanillin

## Cc1ccccc1O [o-cresol]
NbUGT72AY1 [1]; [7]
  Ki: 1368 ± 165 µM
NbUGT72AY1 [3]
  Km: 17 ± 9 µM

## CCCCCCCC/C=C\CCCCCCCC(=O)O [oleic acid]
NbUGT72AY1 [2]; effector at 20 and 100 µM
  UDP-Glo assay with vanillin, effector added: increased catalytic activity of NbUGT72AY1, noted after addition of stearic and oleic acid

B1: NbUGT72AY1 (Nicotiana benthamiana) (protein)
chain: MDSSQLHVAIVSSPGMGHLIPVLVLGNRLATHHNIKITILAITTTSSSAETEFLKKTTLTNEEKTIEIIPVPSVDISHLINSSTKIFTQLRLLVREALPKIHSTIASMTHRPDALIVDIFCTQILPIAEEFNISKYTYHPTTAWTLALAIYCQVFDKEIEGEYVELKEPLKIPGCKALRPDDVVDPLLDRSDQQYEEYVKLGKEYTDFDGILINTWEDLEPETINALRYNEKLRLLLKVPVFPIGPLRRKVETTLNDEVIQWLDKQNNESVLFVSFGSGGTLSTKQMTELAWGLELSQQKFVWVVRPPSDGDADSAYLNSAGKDTRDMSEYLPEGFLTRTKDMGLVVPMWANQVEILSHSSVGGFLTHCGWNSTVESLTNGVPMIAWPLHAEQKMNAAMLTEELGVAIRPAVLPTKKLVKREEIQGMVRILMQTKEGKRIKEKAKKLKKSAENALSDGGSSYNSICELVKDIRSREL
notes: pGEX-4T-1 vector (GST fusion expected), expressed in E. coli BL21(DE3) pLysS
[4]
  Km: 331 ± 25 µM
[5]
  Km: 179 ± 44 µM
[6]
  Km: 15 ± 3 µM
